Test results as given in BindingDB's records for doi:10.1021/jm7013887 (Abbott Laboratories, 2008).

Columns and labels:
[1] = molecular target: T1, Diacylglycerol O-acyltransferase 1 (Mus musculus, UniProt Q9Z2A7); assay: In Vitro FlashPlate Assay; settings: pH 7.5; 22 °C
T1 sequence (Q9Z2A7 whole entry): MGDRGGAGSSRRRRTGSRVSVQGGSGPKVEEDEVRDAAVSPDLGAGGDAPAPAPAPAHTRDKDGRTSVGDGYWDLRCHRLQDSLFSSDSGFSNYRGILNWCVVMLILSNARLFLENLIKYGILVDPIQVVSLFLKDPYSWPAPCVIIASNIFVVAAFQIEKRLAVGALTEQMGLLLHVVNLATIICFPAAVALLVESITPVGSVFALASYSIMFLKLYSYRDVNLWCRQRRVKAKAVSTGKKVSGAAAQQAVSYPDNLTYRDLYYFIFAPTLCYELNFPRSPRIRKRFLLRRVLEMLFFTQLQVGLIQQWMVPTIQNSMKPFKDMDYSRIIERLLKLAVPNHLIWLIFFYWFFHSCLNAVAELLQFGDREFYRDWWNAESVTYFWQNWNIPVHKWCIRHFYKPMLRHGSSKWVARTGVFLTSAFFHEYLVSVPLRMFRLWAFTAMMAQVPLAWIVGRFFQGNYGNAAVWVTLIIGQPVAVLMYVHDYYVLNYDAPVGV
Method: (§1) DGAT-1 activity was characterized by catalyzing the transfer of the radiolabeled decanoyl group onto the syn-3 position of didecanoyl glycerol. The resultant radiolabeled tridecanoyl glycerol (tricaprin) preferentially binds to the hydrophobic coating on the phospholipid FlashPlate, and radioactivity was measured in the TopCount Plate Reader. Various concentrations (0.0001 uM to 10 uM) of test compounds were added to individual wells prior to the addition of membranes.

[2] = molecular target: T2, Diacylglycerol O-acyltransferase 1 (Homo sapiens, UniProt O75907); assay: In Vitro FlashPlate Assay; settings: pH 7.5; 22 °C
T2 sequence (O75907 whole entry): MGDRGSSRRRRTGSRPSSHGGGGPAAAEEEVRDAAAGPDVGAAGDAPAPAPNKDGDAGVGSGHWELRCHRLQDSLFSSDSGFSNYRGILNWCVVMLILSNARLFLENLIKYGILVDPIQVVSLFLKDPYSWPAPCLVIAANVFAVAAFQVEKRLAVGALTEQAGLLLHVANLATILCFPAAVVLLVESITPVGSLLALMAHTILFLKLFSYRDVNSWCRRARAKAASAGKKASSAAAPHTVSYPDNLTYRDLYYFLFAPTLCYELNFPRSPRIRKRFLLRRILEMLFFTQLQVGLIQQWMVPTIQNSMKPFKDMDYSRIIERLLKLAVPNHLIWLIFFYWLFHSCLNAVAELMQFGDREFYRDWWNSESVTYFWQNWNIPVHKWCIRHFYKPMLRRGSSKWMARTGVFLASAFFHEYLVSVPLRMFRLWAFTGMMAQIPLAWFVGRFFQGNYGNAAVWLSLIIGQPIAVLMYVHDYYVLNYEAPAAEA
Method: as §1

SMILES: COc1ccc(NC(=O)Nc2ccc(-c3ccc(C(=O)[C@@H]4CCC[C@H]4C(=O)O)cc3)cc2)cc1 [(1R,2R)-2-{[4-(4-{[(4-methoxyphenyl)carbamoyl]amino}phenyl)phenyl]carbonyl}cyclopentane-1-carboxylic acid]
- IC50 [1]: 28 nM
- IC50 [2]: 9 nM
